Experimental data published in patent US11001591B2, “TRAF 6 inhibitors” (HELMHOLTZ ZENTRUM MUENCHEN—DEUTSCHES FORSCHUNGSZENTRUM FÜR …, priority 2016, dated 2021).
“Also recorded” adds a separate entry of the source.

Tests used:
TRAF6-Ubc13 binding = biological target: T1, TRAF6-Ubc13 binding (Homo sapiens, UniProt Q9Y4K3); test: Co-immunoprecipitation of HA-TRAF6 and endogenous Ubc13 in HEK 293T cells; assay type: cell-based; conditions: listed as C25-140
T1 construct: RING-Zincfinger1 (RZ1) domain (residues 50-159) of TRAF6 wildtype; expressed in transfected cells; host or cells: HEK 293T
T1 sequence (Q9Y4K3 50-159): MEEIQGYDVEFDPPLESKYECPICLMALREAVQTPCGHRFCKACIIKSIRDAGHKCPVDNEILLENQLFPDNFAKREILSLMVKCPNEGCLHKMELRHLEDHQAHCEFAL
Description: To study the interaction of TRAF6 and Ubc13 in cells, 1×10^6 293T cells were seeded and after 18 hours cells were transfected with lpg pEF-HA empty or pEF-HA-TRAF6 RZ1 plasmid using the X-tremeGENE HP DNA transfection reagent (Roche). 6 hours upon transfection, cells were treated with compound or DMSO. After 42 hours further incubation, cells were harvested in Co-IP lysis buffer and HA-TRAF6 was immunoprecipitated with anti-HA affinity matrix (Roche). Binding of Ubc13 to TRAF6 was examined in Western Blot analysis.

TRAF6 RZ1 protein = biological target: T2, TRAF6 RZ1 protein (Homo sapiens, UniProt Q9Y4K3); test: 2D-NMR (SOFAST-HMQC) binding; conditions: protein:compound 1:5
T2 construct: RING-Zincfinger1 (RZ1) domain (residues 50-159) of TRAF6 wildtype; GST (N, cleaved yes); made in house; host or cells: E. coli BL21 codon plus RIPL
Description: To determine whether the inhibitory compounds directly bind to TRAF6 rather than to Ubc13, 2D-NMR experiments were conducted. Untagged ^15N-labeled TRAF6 RZ1 protein (c=120 μM) and compound (c=20 mM) were incubated at a ratio of 1:5 in a 3 mm NMR tube for 10 minutes before spectra acquisition. To observe chemical shift perturbations upon compound addition, two-dimensional SOFAST-HMQC spectra were acquired. All measurements were performed using the Bruker Avance 600 MHz spectrometer.

clAP1 = biological target: T3, clAP1 (Homo sapiens, UniProt Q13490); test: In vitro ubiquitination assay, clAP1; assay type: biochemical; conditions: RING E3 ligase; K63 chain formation
T3 construct: purchased Boston Biochem one of K-102, K-260, K-200B, K-220, K-240, K-270
Description: (§1) For analysis of clAP1, MDM2, TRIM63, RNF4, ITCH and E6AP mediated poly-ubiquitination, the respective ubiquitin ligase kit from Boston Biochem (K-102, K-260, K-200B, K-220, K-240 and K-270) was used. Here, reaction buffer, E1, E2 and E3 enzyme (and p53 substrate in case of MDM2) were mixed and pre-incubated with compound or DMSO for 5 minutes at room temperature before adding Mg^2+-ATP and mono-ubiquitin for reaction start. Ubiquitination was visualized by Western Blot analyses.

RNF4 = biological target: T4, RNF4 (Homo sapiens, UniProt P78317); test: In vitro ubiquitination assay, RNF4; assay type: biochemical
T4 construct: purchased Boston Biochem one of K-102, K-260, K-200B, K-220, K-240, K-270
Description: as §1

ICAM-1 and A20 = test: mRNA expression of NF-κB target genes in MEF cells; assay type: cell-based, mouse
Description: For MEF cells, 1.2×10^5 cells per sample were seeded, treated with compound for 6 hours and stimulated with either IL-1β or TNFα for 60 minutes. Jurkat T-cells and primary mouse CD4^+ T-cells were seeded at 2×10^5 cells per sample, also treated with compound for 6 hours and stimulated with PMA/lonomycin for 3 hours. RNA was isolated according to the manufacturer's protocol of the Qiagen RNeasy Kit (MEF cells) or the STRATEC INVITRAP® SPIN UNIVERSAL RNA MINI KIT (Jurkat T-cells). The isolation of mRNA from […] white adipose tissue from DIO mice was performed using TRIzol® Reagent according to manufacturer's instruction. To clear the isolated RNA from genomic DNA, samples (up to 5 μg RNA) were treated with RQ1 RNase-Free DNaseI (Promega) as described in the technical manual. For the reverse transcription of RNA into cDNA, the DNaseI digested RNA samples were processed using the SuperScript III First Strand cDNA Synthesis System (Invitrogen/ThermoFisher Scientific) following the manufacturer's protocol. […] For quantification of cDNA in the samples, the LightCylcer480 (Roche) and the KAPA SYBR FAST qPCR Kit were used. For relative quantification, the ΔΔCp method first described by Pfaffl (Pfaffl, M. W., A new mathematical model for relative quantification in real-time RT-PCR. Nucleic Acids Res, 2001. 29(9): p. e45) was applied.

IL-2 and TNFα = test: ELISA cytokine secretion of Jurkat T-cells; assay type: cell-based, human; conditions: PMA/Ionomycin
Description: For measurement of cytokine secretion, 2×10^5 Jurkat T-cells or primary CD4^+ T-cells or human PBMCs per sample were seeded, treated with compound for 6 hours and stimulated as indicated. 20 hours after stimulation, supernatants were harvested and analyzed with the IL-2, IL-1β and TNFα Ready-Set-Go! ELISA (2nd Generation) kits provided by Affymatrix eBioscience.

Caco-2 layer = test: Caco-2 assay; assay type: in vitro ADME
Description: All ADME (plasma stability, plasma protein binding, microsomal stability, Log D, Caco-2 assay, CYP450 inhibition and hERG predictor assay) as well as pharmacokinetic studies (Tmax, Cmax, AUC0-240 min, Mean Residence Time, Elimination half life, Elimination rate constant, Volume of Distribution and Clearance) of C25-140 (compound 3) were conducted by Bienta Enamine Biology Services of Bienta/Enamine Ltd.

[1] = system: IMQ-induced psoriasis, Balb/C mice; test: Imiquimod (IMQ)-induced psoriasis mouse model; assay type: in vivo
Description: To evaluate the anti-inflammatory activity of the compound C25-140 (compound 3), an Imiquimod (IMQ)-induced psoriasis mouse model was conducted by Washington Biotechnology, Inc. (Baltimore, USA). Per group, 8 male Balb/C mice were shaved in the back (1.5 cm×2 cm) and IMQ and C25-140 were applied topically to the shaved back and the right ear daily for 6 days. Thereby, C25-140 was dissolved in acetone and applied at a total dosage of 500 μg per day (2×250 μg). Mice were monitored and daily scores (erythema, scaling and thickness of back skin) were independently collected on a scale from 0 to 4:0=none; 1=slight; 2=moderate; 3=marked and 4=very marked. Ear thickness was measured by electronic calipers as an indicator of edema. IL-17 cytokine secretion of the right ear tissue was measured by ELISA.

T3 sequence (Q13490 whole entry): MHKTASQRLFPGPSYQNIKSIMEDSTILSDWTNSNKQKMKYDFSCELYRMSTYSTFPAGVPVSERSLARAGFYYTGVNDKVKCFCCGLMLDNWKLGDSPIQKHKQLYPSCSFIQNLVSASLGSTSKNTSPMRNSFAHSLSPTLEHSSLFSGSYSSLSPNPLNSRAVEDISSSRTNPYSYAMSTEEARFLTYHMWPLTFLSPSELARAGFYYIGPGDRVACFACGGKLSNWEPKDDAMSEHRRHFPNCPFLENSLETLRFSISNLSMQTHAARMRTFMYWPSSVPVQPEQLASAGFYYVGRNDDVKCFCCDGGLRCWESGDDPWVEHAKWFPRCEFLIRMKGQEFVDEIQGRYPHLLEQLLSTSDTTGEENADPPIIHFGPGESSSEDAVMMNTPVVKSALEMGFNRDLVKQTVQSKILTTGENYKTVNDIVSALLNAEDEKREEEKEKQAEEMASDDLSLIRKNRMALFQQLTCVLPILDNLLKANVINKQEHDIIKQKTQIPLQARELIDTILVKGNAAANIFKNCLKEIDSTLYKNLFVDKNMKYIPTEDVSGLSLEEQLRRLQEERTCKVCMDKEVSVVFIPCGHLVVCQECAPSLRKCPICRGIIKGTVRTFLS
T4 sequence (P78317 whole entry, species assumed): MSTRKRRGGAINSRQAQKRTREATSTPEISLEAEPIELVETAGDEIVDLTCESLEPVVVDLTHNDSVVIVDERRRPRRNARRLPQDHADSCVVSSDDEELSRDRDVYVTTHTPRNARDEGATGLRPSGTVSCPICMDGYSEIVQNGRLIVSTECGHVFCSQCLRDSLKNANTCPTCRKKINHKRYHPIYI

direct binding to TRAF6 (NMR peak shifts) (TRAF6 RZ1 protein): directly binds
auto-ubiquitination of clAP1 (clAP1): dose-dependently diminished
RNF4 auto-ubiquitination (RNF4): not affected
Caco-2 permeability (Caco-2 layer): good penetration
SMILES: Cc1nn(-c2ccc3nnc(C)n3n2)c(C)c1CCC(=O)N1CCC(Cc2ccccc2)CC1 [Compound 3, 1-(4-benzylpiperidin-1-yl)-3-(3,5-dimethyl-1-(3-methyl-[1,2,4]triazolo[4,3-b]pyridazin-6-yl)-1H-pyrazol-4-yl)propan-1-one]
interaction of endogenous Ubc13 with ectopically expressed HA-TRAF6 (TRAF6-Ubc13 binding): reduced interaction; also recorded: most active analogs
IL-1β-induced target gene expression (ICAM-1, A20 mRNA) (ICAM-1 and A20): diminished
TNFα induced NF-κB target gene expression (ICAM-1, A20 mRNA) (ICAM-1 and A20; TNFα): also affected
cytokine secretion of IL-2 and TNFα (IL-2 and TNFα): dose-dependently decreased
IL-17 in right ear tissue ([1]; day 6, ELISA): decreased
cumulative score (thickness, scaling, erythema of the back) ([1]; topical twice daily, 6 days): reduces
ear thickness ([1]; topical twice daily, 6 days): significantly reduced
scaling, erythema and ear thickness scores ([1]; topical twice daily, 6 days): improvement of the disease symptoms
thickness score of the back ([1]; topical twice daily, 6 days): significantly reduce
